Patent US9302999B2, “Substituted triazoles as herbicides” (E. I. DU PONT DE NEMOURS AND COMPANY, priority 2012, dated 2016)

What was measured:
Type in all cases: in vivo
[1] = tested on: barnyardgrass (Echinochloa crus-galli); assay: Test A pre-/postemergence: barnyardgrass
Outline: (§1)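 Injury is scored visually on a scale where 0 means no effect and 100 complete control, comparing treated with untreated plants after approximately ten greenhouse days. Both preemergence and postemergence applications are made at the same time.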

[2] = tested on: crabgrass, large (large crabgrass, Digitaria sanguinalis); assay: Test A pre-/postemergence: crabgrass, large
Outline: as §1

[3] = tested on: foxtail, giant (giant foxtail, Setaria faberii); assay: Test A pre-/postemergence: foxtail, giant
Outline: as §1

[4] = tested on: morningglory (Ipomoea spp.); assay: Test A pre-/postemergence: morningglory
Outline: as §1

[5] = tested on: pigweed (Amaranthus retroflexus); assay: Test A pre-/postemergence: pigweed
Outline: as §1

[6] = tested on: velvetleaf (Abutilon theophrasti); assay: Test A pre-/postemergence: velvetleaf
Outline: as §1

[7] = tested on: wheat (Triticum aestivum); assay: Test A pre-/postemergence: wheat
Outline: as §1

[8] = tested on: corn (Zea mays); assay: Test A pre-/postemergence: corn
Outline: as §1

[9] = tested on: rice (Oryza sativa); assay: Test C flooded paddy test: rice; conditions: scale 0 to 100 (0 no effect, 100 complete control)
Outline: (§2)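 Plants were grown to the 2-leaf stage, pots flooded to 3 cm above soil, and test compounds applied directly to the paddy water, with that depth held throughout. After 13 to 15 days in a greenhouse, injury was visually rated against controls on a 0 (no effect) to 100 (complete control) scale.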

[10] = tested on: sedge, umbrella (small-flower umbrella sedge, Cyperus difformis); assay: Test C flooded paddy test: sedge, umbrella; conditions: scale 0 to 100 (0 no effect, 100 complete control)
Outline: as §2

[11] = tested on: ducksalad (Heteranthera limosa); assay: Test C flooded paddy test: ducksalad; conditions: scale 0 to 100 (0 no effect, 100 complete control)
Outline: as §2

[12] = tested on: barnyardgrass (Echinochloa crus-galli); assay: Test C flooded paddy test: barnyardgrass; conditions: scale 0 to 100 (0 no effect, 100 complete control)
Outline: as §2

[13] = Postemergence, 125 g ai/ha, 0 to 100 scale, 0 is no effect, 100 is complete control
[14] = Postemergence, 500 g ai/ha, visual rating on 0 to 100 scale (0 no effect, 100 complete control), approximately ten days
[15] = Preemergence, 125 g ai/ha, 0 to 100 scale (0 no effect, 100 complete control)
[16] = Preemergence, 500 g ai/ha, 0 to 100 scale, 0 is no effect, 100 is complete control
[17] = Flood (flooded paddy test), 62 g ai/ha, visual rating after 13 to 15 days
[18] = Flood (flooded paddy test), 125 g ai/ha, visual rating after 13 to 15 days
[19] = Flood (flooded paddy test), 250 g ai/ha, visual rating after 13 to 15 days
[20] = Postemergence, 1000 g ai/ha, visual rating on 0 to 100 scale (0 no effect, 100 complete control), approximately ten days
[21] = Preemergence, 1000 g ai/ha, 0 to 100 scale, 0 is no effect, 100 is complete control

With `Cc1nn(-c2ccnc(C(F)(F)F)c2)nc1C(=O)c1cccc(C(F)(F)F)c1` [Compound 49] the “Barnyardgrass plant response rating” value [1, 13] was 10, the “Barnyardgrass plant response rating” value [1, 14] was 20 and the “Plant response rating, Barnyardgrass” value [1, 15] was 10. The “Plant response rating, Barnyardgrass” value [1, 16] was 30, the “Crabgrass, Large plant response rating” value [2, 13] was 60 and the “Crabgrass, Large plant response rating” value [2, 14] was 90. For the same molecule, the “Plant response rating, Crabgrass, Large” value [2, 15] was 80, the “Plant response rating, Crabgrass, Large” value [2, 16] was 100 and the “Foxtail, Giant plant response rating” value [3, 13] was 30. The “Foxtail, Giant plant response rating” value [3, 14] was 60, the “Plant response rating, Foxtail, Giant” value [3, 15] was 80 and the “Plant response rating, Foxtail, Giant” value [3, 16] was 100. The “Morningglory plant response rating” value [4, 13] was 20, the “Morningglory plant response rating” value [4, 14] was 50 and the “Plant response rating, Morningglory” value [4, 15] was 0. For the same molecule, the “Plant response rating, Morningglory” value [4, 16] was 10, the “Pigweed plant response rating” value [5, 13] was 80 and the “Pigweed plant response rating” value [5, 14] was 100. The “Plant response rating, Pigweed” value [5, 15] was 60, the “Plant response rating, Pigweed” value [5, 16] was 100 and the “Velvetleaf plant response rating” value [6, 13] was 30. For the same molecule, the “Velvetleaf plant response rating” value [6, 14] was 60, the “Plant response rating, Velvetleaf” value [6, 15] was 0 and the “Plant response rating, Velvetleaf” value [6, 16] was 10. The “Wheat plant response rating” value [7, 13] was 10, the “Wheat plant response rating” value [7, 14] was 20 and the “Plant response rating, Wheat” value [7, 15] was 10. For the same molecule, the “Plant response rating, Wheat” value [7, 16] was 20, the “Corn plant response rating” value [8, 13] was 10 and the “Corn plant response rating” value [8, 14] was 20. For the same molecule, the “Plant response rating, Corn” value [8, 15] was 0, the “Plant response rating, Corn” value [8, 16] was 10 and the “Plant response rating, Rice” value [9, 17] was 0. The “Plant response rating, Rice” value [9, 18] was 0, the “Plant response rating, Rice” value [9, 19] was 0 and the “Plant response rating, Rice” value ([9]; Flood, 31 g ai/ha) was 0. For the same molecule, the “Plant response rating, Sedge, Umbrella” value [10, 17] was 0, the “Plant response rating, Sedge, Umbrella” value [10, 18] was 70 and the “Plant response rating, Sedge, Umbrella” value [10, 19] was 75. The “Plant response rating, Sedge, Umbrella” value ([10]; Flood, 31 g ai/ha) was 0, the “Plant response rating, Ducksalad” value [11, 17] was 0 and the “Plant response rating, Ducksalad” value [11, 18] was 30. For the same molecule, the “Plant response rating, Ducksalad” value [11, 19] was 40, the “Plant response rating, Ducksalad” value ([11]; Flood, 31 g ai/ha) was 0 and the “Plant response rating, Barnyardgrass” value [12, 17] was 0. The “Plant response rating, Barnyardgrass” value [12, 18] was 10, the “Plant response rating, Barnyardgrass” value [12, 19] was 15 and the “Plant response rating, Barnyardgrass” value ([12]; Flood, 31 g ai/ha) was 0.
`Cc1nn(-c2ccc(F)cc2)nc1Cn1cnc(C(F)(F)F)n1` [Compound 94] was tested, and the “Barnyardgrass plant response rating” value [1, 20] was 40, the “Barnyardgrass plant response rating” value [1, 21] was 70 and the “Crabgrass, Large plant response rating” value [2, 20] was 80. The “Crabgrass, Large plant response rating” value [2, 21] was 100, the “Foxtail, Giant plant response rating” value [3, 20] was 70 and the “Foxtail, Giant plant response rating” value [3, 21] was 100. The “Morningglory plant response rating” value [4, 20] was 100, the “Morningglory plant response rating” value [4, 21] was 60 and the “Pigweed plant response rating” value [5, 20] was 100. The “Pigweed plant response rating” value [5, 21] was 100, the “Velvetleaf plant response rating” value [6, 20] was 80 and the “Velvetleaf plant response rating” value [6, 21] was 20. For the same molecule, the “Wheat plant response rating” value [7, 20] was 30, the “Wheat plant response rating” value [7, 21] was 0 and the “Corn plant response rating” value [8, 20] was 40. The “Corn plant response rating” value [8, 21] was 0, the “Plant response rating, Rice” value [9, 18] was 0 and the “Plant response rating, Rice” value [9, 19] was 0. The “Plant response rating, Rice” value ([9]; Flood, 31 g ai/ha) was 0, the “Plant response rating, Rice” value ([9]; Flood, 62 g ai/ha) was 0 and the “Plant response rating, Sedge, Umbrella” value [10, 18] was 60. The “Plant response rating, Sedge, Umbrella” value [10, 19] was 75, the “Plant response rating, Sedge, Umbrella” value ([10]; Flood, 31 g ai/ha) was 0 and the “Plant response rating, Sedge, Umbrella” value ([10]; Flood, 62 g ai/ha) was 50. The “Plant response rating, Ducksalad” value [11, 18] was 40, the “Plant response rating, Ducksalad” value [11, 19] was 60 and the “Plant response rating, Ducksalad” value ([11]; Flood, 31 g ai/ha) was 0. The “Plant response rating, Ducksalad” value ([11]; Flood, 62 g ai/ha) was 0, the “Plant response rating, Barnyardgrass” value [12, 18] was 0 and the “Plant response rating, Barnyardgrass” value [12, 19] was 0. For the same molecule, the “Plant response rating, Barnyardgrass” value ([12]; Flood, 31 g ai/ha) was 0 and the “Plant response rating, Barnyardgrass” value ([12]; Flood, 62 g ai/ha) was 0.
